Assay results reported in ChEMBL document CHEMBL3297692, “Discovery of naphthyl-fused 5-membered lactams as a new class of m1 positive allosteric modulators” (ACS Med Chem Lett, 2014).
Converted amounts (≈) assume the structure as drawn. The source made the active and inactive calls. The calls are words filed in the database; no cut-off is given here.

How the values were obtained:
[1] = biological target: T1, Muscarinic acetylcholine receptor M1 (Homo sapiens) (UniProt P11229); assay: Positive allosteric modulation of human mAChR1 expressed in CHONFAT cells assessed as potention of acetylcholine-induced effect incubated for 4 mins prior to acetylcholine addition measured after 4 mins by FLIPR assay; format: cell-based
T1 sequence (whole entry): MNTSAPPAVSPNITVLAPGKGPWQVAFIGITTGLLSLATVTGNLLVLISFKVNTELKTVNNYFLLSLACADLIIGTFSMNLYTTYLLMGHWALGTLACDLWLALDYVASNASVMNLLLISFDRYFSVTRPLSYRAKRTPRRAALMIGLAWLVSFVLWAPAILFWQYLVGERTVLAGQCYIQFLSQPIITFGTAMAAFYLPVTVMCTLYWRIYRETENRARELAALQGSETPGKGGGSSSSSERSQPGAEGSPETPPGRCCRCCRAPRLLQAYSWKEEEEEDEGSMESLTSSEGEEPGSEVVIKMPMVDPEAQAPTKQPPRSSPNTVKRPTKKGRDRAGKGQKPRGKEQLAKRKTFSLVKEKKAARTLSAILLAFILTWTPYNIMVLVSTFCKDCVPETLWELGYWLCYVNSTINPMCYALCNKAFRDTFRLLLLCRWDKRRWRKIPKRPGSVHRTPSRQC

[2] = Plasma protein binding in rat by equilibrium dialysis method; format: ADME, cell-free; settings: read-out: PPB (converted)
[3] = Plasma protein binding in human by equilibrium dialysis method; format: ADME, cell-free; settings: read-out: PPB (converted)
[4] = Apparent passive permeability of the compound; format: physicochemical; settings: not told
[5] = biological target: MDR1 (ABCB1, P-glycoprotein) (Homo sapiens, UniProt P08183); assay: Effect on human MDR1-mediated drug transport assessed as efflux ratio of permeability from basolateral to apical side over apical to basolateral side; format: ADME; settings: not told
MDR1 (ABCB1, P-glycoprotein), sequence (P08183 whole entry): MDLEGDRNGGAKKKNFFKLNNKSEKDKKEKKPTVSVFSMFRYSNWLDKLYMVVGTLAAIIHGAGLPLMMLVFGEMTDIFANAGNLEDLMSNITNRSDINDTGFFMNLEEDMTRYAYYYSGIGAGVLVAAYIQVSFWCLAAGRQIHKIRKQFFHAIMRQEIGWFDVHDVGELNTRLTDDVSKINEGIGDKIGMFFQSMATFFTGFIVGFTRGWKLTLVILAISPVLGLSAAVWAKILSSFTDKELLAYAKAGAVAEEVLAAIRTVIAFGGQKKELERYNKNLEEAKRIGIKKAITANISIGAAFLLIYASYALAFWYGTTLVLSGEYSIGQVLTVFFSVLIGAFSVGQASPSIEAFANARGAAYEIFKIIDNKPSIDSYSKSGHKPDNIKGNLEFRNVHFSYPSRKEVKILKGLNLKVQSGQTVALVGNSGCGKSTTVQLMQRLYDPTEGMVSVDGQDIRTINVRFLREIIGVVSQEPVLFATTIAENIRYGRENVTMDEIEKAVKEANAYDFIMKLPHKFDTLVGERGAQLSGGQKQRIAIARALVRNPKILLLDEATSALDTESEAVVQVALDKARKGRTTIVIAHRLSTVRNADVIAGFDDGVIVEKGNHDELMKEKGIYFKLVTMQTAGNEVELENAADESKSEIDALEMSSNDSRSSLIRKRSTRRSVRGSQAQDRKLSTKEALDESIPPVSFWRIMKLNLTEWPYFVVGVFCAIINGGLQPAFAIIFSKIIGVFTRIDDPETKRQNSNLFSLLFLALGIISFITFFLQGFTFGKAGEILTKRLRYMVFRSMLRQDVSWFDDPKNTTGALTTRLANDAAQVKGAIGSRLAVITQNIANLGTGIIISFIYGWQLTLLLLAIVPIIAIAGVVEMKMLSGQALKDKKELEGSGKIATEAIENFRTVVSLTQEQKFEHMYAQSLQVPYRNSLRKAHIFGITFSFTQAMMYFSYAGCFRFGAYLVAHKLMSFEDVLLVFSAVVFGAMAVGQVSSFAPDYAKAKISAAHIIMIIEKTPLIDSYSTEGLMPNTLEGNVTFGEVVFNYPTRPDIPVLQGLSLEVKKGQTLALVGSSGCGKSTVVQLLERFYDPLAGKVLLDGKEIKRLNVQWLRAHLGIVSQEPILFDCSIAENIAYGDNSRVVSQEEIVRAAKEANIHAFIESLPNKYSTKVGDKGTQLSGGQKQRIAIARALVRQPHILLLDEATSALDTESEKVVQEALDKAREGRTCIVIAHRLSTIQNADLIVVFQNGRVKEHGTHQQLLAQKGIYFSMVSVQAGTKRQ

MDR1a = assay: Effect on rat MDR1a-mediated drug transport assessed as efflux ratio of permeability from basolateral to apical side over apical to basolateral side; format: ADME; settings: not told
Plasma [6] = assay: Plasma concentration in Sprague-Dawley rat at 10 mg/kg, po; format: ADME, organism-based; set-up: dose 10 mg/kg, route oral; settings: in vivo
Cerebrospinal fluid = assay: Drug uptake in cerebrospinal fluid in Sprague-Dawley rat at 10 mg/kg, po; format: ADME, organism-based; set-up: dose 10 mg/kg, route oral; settings: in vivo, read-out: Drug uptake
Nucleic Acid = assay: Ratio of drug uptake in Sprague-Dawley rat cerebrospinal fluid to unbound plasma level in rat; format: ADME
[7] = Solubility of the compound at pH 2; format: physicochemical; settings: buffer
[8] = Solubility of the compound at pH 7; format: physicochemical; settings: buffer
[9] = Lipophilicity, log D of the compound by HPLC analysis; format: physicochemical
[10] = biological target: T1, Muscarinic acetylcholine receptor M1 (Homo sapiens); assay: Potentiation of human mAChR1 expressed in CHONFAT cells assessed as fold shift in acetylcholine response curve at 1.8 uM incubated for 4 mins prior to acetylcholine addition measured after 4 mins relative to control; format: cell-based
[11] = biological target: T1, Muscarinic acetylcholine receptor M1 (Homo sapiens); assay: Potentiation of human mAChR1 expressed in CHONFAT cells assessed as fold shift acetylcholine response curve incubated for 4 mins prior to acetylcholine addition measured after 4 mins relative to control; format: cell-based
Mus musculus [12] = assay: Reversal of scopolamine-induced memory deficit in B6SJL mouse contextual fear conditioning model at 1 mg/kg, ip after 30 mins relative to vehicle-treated control; format: functional, organism-based; set-up: dose 1 mg/kg
Plasma [13] = assay: Plasma concentration in B6SJL mouse contextual fear conditioning model at 1 mg/kg, ip; format: ADME, organism-based; set-up: dose 1 mg/kg, route intraperitoneal; settings: in vivo
[14] = Clearance in rat at 2 mg/kg, iv; format: ADME, organism-based; set-up: dose 2 mg/kg, route intravenous; settings: in vivo
[15] = Volume of distribution at steady state in rat at 2 mg/kg, iv; format: ADME, organism-based; set-up: dose 2 mg/kg, route intravenous; settings: in vivo, read-out: Vdss
[16] = Half life in rat at 2 mg/kg, iv; format: ADME, organism-based; set-up: dose 2 mg/kg, route intravenous; settings: in vivo
[17] = Clearance in dog at 0.125 mg/kg, iv; format: ADME, organism-based, Canis lupus familiaris; set-up: dose 0.125 mg/kg, route intravenous; settings: in vivo
[18] = Volume of distribution at steady state in dog at 0.125 mg/kg, iv; format: ADME, organism-based, Canis lupus familiaris; set-up: dose 0.125 mg/kg, route intravenous; settings: in vivo, read-out: Vdss
[19] = Half life in dog at 0.125 mg/kg, iv; format: ADME, organism-based, Canis lupus familiaris; set-up: dose 0.125 mg/kg, route intravenous; settings: in vivo
[20] = Fraction unbound in rat plasma by equilibrium dialysis method; format: ADME, cell-free
[21] = Fraction unbound in human plasma by equilibrium dialysis method; format: ADME, cell-free
Mus musculus [22] = assay: Reversal of scopolamine-induced memory deficit in ip dosed B6SJL mouse contextual fear conditioning model at 1 uM plasma level after 30 mins relative to vehicle-treated control; format: functional, organism-based

| Compound | IP [1] [nM] | fraction unbound [2] | fraction unbound [3] | Papp [4] [×10⁻⁶ cm/s] | efflux ratio [5] | efflux ratio (MDR1a) | other results |
| --- | --- | --- | --- | --- | --- | --- | --- |
| N#CC1(c2ccccn2)CCN(Cc2cc3c(c4ccccc24)CN([C@H]2CCCC[C@@H]2O)C3=O)CC1 | 15 | 0.05 | 0.08 | 34 | 3.2 | 4.3 | concentration (Plasma [6]): 5180 nM; concentration (Cerebrospinal fluid): 134 nM; Ratio (Nucleic Acid): 0.51; solubility [7]: 195 µM (≈ 93.7 µg/mL); solubility [8]: 11 µM (≈ 5.29 µg/mL); logD [9]: 2.9; fold change (FC) [10]: 40; Activity [11]: Dose-dependent effect; Activity (Mus musculus [12]): Active; concentration (Plasma [13]): 1500 nM; clearance [14]: 4.1 mL/min/kg; Vd [15]: 2.8 L/kg; half-life [16]: 12 h; clearance [17]: 2.1 mL/min/kg; Vd [18]: 1.2 L/kg; half-life [19]: 6.7 h; fraction unbound [20]: 0.05; fraction unbound [21]: 0.08 |
| N#CC1(c2ccccn2)CCN(Cc2cc3c(c4ccccc24)CN(C2CCOCC2)C3=O)CC1 | 280 |  |  |  |  |  |  |
| Cc1cccc(C2(C#N)CCN(Cc3cc4c(c5ccccc35)CN([C@H]3CCCC[C@@H]3O)C4=O)CC2)n1 | 27 | 0.01 | 0.01 | 28 | 1.5 | 3.1 |  |
| N#CC1(c2ccccn2)CCN(Cc2cc3c(c4ccccc24)CN([C@@H]2CCCC[C@H]2O)C3=O)CC1 | 540 |  |  |  |  |  |  |
| N#CC1(c2cnccn2)CCN(Cc2cc3c(c4ccccc24)CN([C@H]2CCCC[C@@H]2O)C3=O)CC1 | 31 | 0.142 | 0.086 | 31 | 8 | 11 |  |
| N#CC1(c2ccncn2)CCN(Cc2cc3c(c4ccccc24)CN([C@H]2CCCC[C@@H]2O)C3=O)CC1 | 17 | 0.07 | 0.09 | 29 | 6 | 20 |  |
| N#CC1(c2ccccc2)CCN(Cc2cc3c(c4ccccc24)CN([C@H]2CCCC[C@@H]2O)C3=O)CC1 | 83 | 0.006 | 0.011 | 23 | 1.7 | 3.4 |  |
| N#CC1(c2ccccn2)CCN(Cc2cc3c(c4ccccc24)CN([C@H]2CCCC[C@H]2O)C3=O)CC1 | 150 |  |  |  |  |  |  |
| N#CC1(c2cccnc2)CCN(Cc2cc3c(c4ccccc24)CN([C@H]2CCCC[C@@H]2O)C3=O)CC1 | 22 |  |  | 32 |  |  |  |
| N#CC1(c2ccncc2)CCN(Cc2cc3c(c4ccccc24)CN([C@H]2CCCC[C@@H]2O)C3=O)CC1 | 22 |  |  | 30 | 26 | 49 |  |
| N#CC1(c2ccccn2)CCN(Cc2cc(C(=O)O)c(=O)n3ccccc23)CC1 |  |  |  |  |  |  | Activity (Mus musculus [22]): Active |
| N#CC1(c2ccccn2)CCN(Cc2cc3c(c4ccccc24)CN(C2CCCOC2)C3=O)CC1 (centres undefined) | 1500 |  |  |  |  |  |  |
| N#CC1(c2cccnn2)CCN(Cc2cc3c(c4ccccc24)CN([C@H]2CCCC[C@@H]2O)C3=O)CC1 | 27 | 0.146 | 0.144 | 27 |  |  |  |
| CC1c2c(cc(CN3CCC(C#N)(c4ccccn4)CC3)c3ccccc23)C(=O)N1[C@H]1CCCC[C@@H]1O (mixture of isomers) | 19 | 0.014 | 0.06 | 29 | 1.7 | 4.1 | concentration (Plasma [6]): 1120 nM; concentration (Cerebrospinal fluid): 4.7 nM; Ratio (Nucleic Acid): 0.3; solubility [7]: 198 µM; solubility [8]: 19 µM; logD [9]: 3.4 |
| O=C1c2cc(CN3CCC(F)(c4ccccn4)CC3)c3ccccc3c2CN1[C@H]1CCCC[C@@H]1O | 58 | 0.015 | 0.03 | 34 | 2.1 | 2.7 |  |
| N#CC1(c2ccccn2)CCN(Cc2cc3c(c4ccccc24)CN(c2ccccc2F)C3=O)CC1 | 290 |  |  |  |  |  |  |
| Cc1ccnc(C2(C#N)CCN(Cc3cc4c(c5ccccc35)CN([C@H]3CCCC[C@@H]3O)C4=O)CC2)c1 | 16 | 0.007 | 0.006 | 22 | 1.3 | 4.5 | concentration (Plasma [6]): 2340 nM; concentration (Cerebrospinal fluid): 8.6 nM; Ratio (Nucleic Acid): 0.52; solubility [7]: 179 µM (≈ 88.5 µg/mL); solubility [8]: 3 µM (≈ 1.48 µg/mL); logD [9]: 3.3 |
